According to ChEMBL document CHEMBL1201862, “PubChem BioAssay data set” (2004):
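In this assay, cells in 96-well plates receive the compound at five concentrations for 48 hours. Endpoints are linearly interpolated between the surrounding concentrations. Abbreviation: GI50, concentration required for 50% inhibition of growth.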 Active and inactive are the calls of the source. No stated cut-off is given here; in the data, active = GI50 up to about 1.1 µM and inactive = higher.

Columns and labels:
Test in all cases: NCI-60 cell line screen, 48 h
786-0 = tested on: 786-0
A498 = tested on: A498
A549 = tested on: A549
EKVX = tested on: EKVX
HCT-116 = tested on: HCT-116
HL-60 = tested on: HL-60
HOP-92 = tested on: HOP-92
LOX IMVI = tested on: LOX IMVI
M14 = tested on: M14
MDA-N = tested on: MDA-N
MOLT-4 = tested on: MOLT-4
OVCAR-4 = tested on: OVCAR-4
PC-3 = tested on: PC-3
RPMI-8226 = tested on: RPMI-8226
SF-268 = tested on: SF-268
SN12C = tested on: SN12C
SNB-19 = tested on: SNB-19
SR = tested on: SR
SW-620 = tested on: SW-620
TK-10 = tested on: TK-10

Measured: GI50

Cc1cccc2c(NCCCN(C)C)c3c([N+](=O)[O-])ccc(C)c3nc12
active: 786-0 0.0689 µM | A498 < 0.01 µM | A549 0.101 µM | EKVX 0.0855 µM | HCT-116 0.1 µM | HL-60 0.203 µM | HOP-92 0.0916 µM | LOX IMVI 0.197 µM | M14 0.132 µM | MDA-N 0.196 µM | MOLT-4 0.0178 µM | OVCAR-4 0.0628 µM | PC-3 0.0494 µM | RPMI-8226 0.19 µM | SF-268 0.198 µM | SN12C 0.221 µM | SNB-19 0.192 µM | SR < 0.0154 µM | SW-620 0.0659 µM | TK-10 0.252 µM
